These compounds were tested against T1, recombinant thymidine kinase 1 (TK-1) (Homo sapiens, UniProt P04183). Conditions: cold 19F analogues; 100 μM ATP+P-32-ATP, 10-60 ng thymidine kinase; TLC, phosphoimager; thymidine 100%.
T1 sequence (P04183 1-234): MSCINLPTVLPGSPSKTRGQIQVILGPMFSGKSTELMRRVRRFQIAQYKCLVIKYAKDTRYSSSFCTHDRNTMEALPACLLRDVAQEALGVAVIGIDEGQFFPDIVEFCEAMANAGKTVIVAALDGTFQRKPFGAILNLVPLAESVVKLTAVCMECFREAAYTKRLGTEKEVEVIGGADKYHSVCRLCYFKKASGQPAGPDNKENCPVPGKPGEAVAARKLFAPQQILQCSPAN

| Structure (SMILES) | In vitro-Phosphorylation |
| --- | --- |
| Cc1cn([C@H]2C[C@H](O)[C@@H](CO)O2)c(=O)n(CCCNC(=O)c2ccc(F)c(C(F)(F)F)c2)c1=O | 12% ± 1.1% |
| Cc1cn([C@H]2C[C@H](O)[C@@H](CO)O2)c(=O)n(CCCCN(C)C(=O)c2ccc(F)c(C#N)c2)c1=O | 12% ± 2.8% |
| Cc1cn([C@H]2C[C@H](O)[C@@H](CO)O2)c(=O)n(CCNC(=O)CNC(=O)C(CF)NS(=O)(=O)c2c(C(C)C)cc(C(C)C)cc2C(C)C)c1=O (some centres unmarked) | 19% ± 3.7% |
| Cc1cn([C@H]2C[C@H](O)[C@@H](CO)O2)c(=O)n(CCCCCCNC(=O)CNC(=O)C(CF)NS(=O)(=O)c2c(C(C)C)cc(C(C)C)cc2C(C)C)c1=O (some centres unmarked) | 17% ± 10.2% |
| Cc1cn([C@H]2C[C@H](O)[C@@H](CO)O2)c(=O)n(CCCNC(=O)Cc2ccc([Si](F)(C(C)C)C(C)C)cc2)c1=O | 17% ± 1.5% |
| N#Cc1cc(C(=O)NCCCCCCn2c(=O)c(C(F)(F)F)cn([C@H]3C[C@H](O)[C@@H](CO)O3)c2=O)ccc1F | 49% ± 9.9% |
| Cc1cn([C@H]2C[C@H](O)[C@@H](CO)O2)c(=O)n(CCCCCCCNC(=O)c2ccc(F)c(C#N)c2)c1=O | 36% ± 6.5% |
| Cc1cn([C@H]2C[C@H](O)[C@@H](CO)O2)c(=O)n(CCCNC(=O)CCc2cccc([Si](F)(C(C)C)C(C)C)c2)c1=O | 15% ± 6.1% |
| Cc1cn([C@H]2C[C@H](O)[C@@H](CO)O2)c(=O)n(CC#CCF)c1=O | 23% ± 8.0% |
| Cc1cn([C@H]2C[C@H](O)[C@@H](CO)O2)c(=O)n(Cc2ccc(F)cc2)c1=O | 34% ± 18.6% |
| Cc1cn([C@H]2C[C@H](O)[C@@H](CO)S2)c(=O)n(CCCCCCF)c1=O | 26% ± 4.0% |
| Cc1cn([C@H]2C[C@H](O)[C@@H](CO)S2)c(=O)[nH]c1=O | 70% ± 9.3% |
| Cc1cn([C@H]2C[C@H](F)[C@@H](CO)O2)c(=O)[nH]c1=O [FLT, 3′-[F-18]fluoro-3′-deoxythymidine, reference compound] | 58% ± 11.9% |
| Cc1cn([C@H]2C[C@H](O)[C@@H](CO)O2)c(=O)n(CCCCF)c1=O [TD-1] | 13% ± 5.4% |
| Cc1cn([C@H]2C[C@H](O)[C@@H](CO)O2)c(=O)n(CCCCCCF)c1=O [TD-2] | 30% ± 3.7% |
| Cc1cn([C@H]2C[C@H](O)[C@@H](CO)O2)c(=O)n(CCCCCCNC(=O)c2ccc(F)c(C#N)c2)c1=O [TD-8] | 41% ± 9.5% |
| Cc1cn([C@H]2C[C@H](O)[C@@H](CO)O2)c(=O)n(CCCCNC(=O)c2ccc(F)c(C#N)c2)c1=O [TD-9] | 21% ± 4.6% |
